Source: patent publication EP4083217A1, “IN VIVO […] THERAPY FOR THE TREATMENT OF PRIMARY HYP[…] 1” (Centro de Investigaciones Energéticas, Medioambientales y …, priority 2021, dated 2022)

Test system: HepG2 cells
Test: Transduction enhancer Cyclosporin H in vitro testing (eGFP positive cells by flow cytometry)
Format: cell-based
Method: Due to the important relevance of the target tissue origin, HepG2 cells, a hepatic cell line, were used.
Three days after transduction, the percentage of eGFP positive cells was analysed by Flow Cytometry. All conditions were performed as triple experimental replicates.

C/C=C/C[C@@H](C)[C@@H](O)[C@H]1C(=O)N[C@@H](CC)C(=O)N(C)CC(=O)N(C)[C@@H](CC(C)C)C(=O)N[C@@H](C(C)C)C(=O)N(C)[C@@H](CC(C)C)C(=O)N[C@@H](C)C(=O)N[C@H](C)C(=O)N(C)[C@@H](CC(C)C)C(=O)N(C)[C@@H](CC(C)C)C(=O)N(C)[C@H](C(C)C)C(=O)N1C [CsH, Cyclosporin H]
transduction percentage (eGFP positive cells) (HepG2, LV.ET.eGFP.142-3pT MOI 0.3, 4 µM CsH during transduction): 37.67% | percentage of transduced cells (HepG2, LV.ET.eGFP.142-3pT MOI 0.3, 16 µM CsH 16 hours pre-treatment and during transduction): 31.03% | transduction percentage (eGFP positive cells) (HepG2, LV.ET.eGFP.142-3pT MOI 0.3, 16 µM CsH during transduction): 51.5%
